Test system: protein synthesis in E. coli S30 extract
Format: biochemical, Escherichia coli
Conditions: read-out: IC50, inhibition of firefly luciferase synthesis, 37°C, 30 min, luciferase activity, three independent measurements

Structure (SMILES) | IC50 [nM]
CC[C@H]1OC(=O)[C@H](C)[C@@H](O[C@H]2C[C@@](C)(OC)[C@@H](O)[C@H](C)O2)[C@H](C)[C@@H](O[C@@H]2O[C@H](C)C[C@H](N(C)C)[C@H]2O)[C@](C)(O)C[C@@H](C)[C@@H]2N[C@@H](COCCOC)O[C@H]([C@H]2C)[C@]1(C)O [DIR, dirithromycin] | 190 ± 20
CC[C@H]1OC(=O)[C@H](C)[C@@H](O[C@H]2C[C@@](C)(OC)[C@@H](O)[C@H](C)O2)[C@H](C)[C@@H](O[C@@H]2O[C@H](C)C[C@H](N(C)C)[C@H]2O)[C@](C)(O)C[C@@H](C)C(=O)[C@H](C)[C@@H](O)[C@]1(C)O [ERY, erythromycin] | 320 ± 20

— PMC7266154 (RNA, 2020)
